Results taken from ChEMBL document CHEMBL1133057, “Synthesis and in vitro antibacterial activity of 3-[N-methyl-N-(3-methyl-1,3-thiazolium-2-yl)aminolmethyl cephalosporin derivatives” (2000).
Converted amounts (≈) assume the structure as drawn.

Experiments:
Pseudomonas aeruginosa [1] = assay: Compound was tested in vitro for its minimum inhibitory concentration by serial 2-fold agar dilution Muller Hinton method against Pseudomonas aeruginosa 1592 E; assay type: functional
Streptococcus pyogenes [2] = assay: Compound was tested in vitro for its minimum inhibitory concentration by serial 2-fold agar dilution Muller Hinton method against Streptococcus pyogenes A 308; assay type: functional
Escherichia coli [3] = assay: Compound was tested in vitro for its minimum inhibitory concentration by serial 2-fold agar dilution Muller Hinton method against Escherichia coli DC 0; assay type: functional
Pseudomonas aeruginosa [4] = assay: Compound was tested in vitro for its minimum inhibitory concentration by serial 2-fold agar dilution Muller Hinton method against Pseudomonas aeruginosa 9027; assay type: functional
Streptococcus pyogenes [5] = assay: Compound was tested in vitro for its minimum inhibitory concentration by serial 2-fold agar dilution Muller Hinton method against Streptococcus pyogenes 8b; assay type: functional
Klebsiella aerogenes = assay: Compound was tested in vitro for its minimum inhibitory concentration by serial 2-fold agar dilution Muller Hinton method against Klebsiella aerogenes 1522 E; assay type: functional
Klebsiella oxytoca = assay: Compound was tested in vitro for its minimum inhibitory concentration by serial 2-fold agar dilution Muller Hinton method against Klebsiella oxytoca 1082 E; assay type: functional
Staphylococcus aureus [6] = assay: Compound was tested in vitro for its minimum inhibitory concentration by serial 2-fold agar dilution Muller Hinton method against Staphylococcus aureus SG511; assay type: functional
Streptococcus pyogenes [7] = assay: Compound was tested in vitro for its minimum inhibitory concentration by serial 2-fold agar dilution Muller Hinton method against Streptococcus pyogenes A77; assay type: functional
Enterobacter cloacae [8] = assay: Compound was tested in vitro for its minimum inhibitory concentration by serial 2-fold agar dilution Muller Hinton method against Enterobacter cloacae P99; assay type: functional
Staphylococcus aureus [9] = assay: Compound was tested in vitro for its minimum inhibitory concentration by serial 2-fold agar dilution Muller Hinton method against Staphylococcus aureus 285; assay type: functional
Staphylococcus aureus [10] = assay: Compound was tested in vitro for its minimum inhibitory concentration by serial 2-fold agar dilution Muller Hinton method against Staphylococcus aureus 503; assay type: functional
Pseudomonas aeruginosa [11] = assay: Compound was tested in vitro for its minimum inhibitory concentration by serial 2-fold agar dilution Muller Hinton method against Pseudomonas aeruginosa 1771; assay type: functional
Escherichia coli [12] = assay: Compound was tested in vitro for its minimum inhibitory concentration by serial 2-fold agar dilution Muller Hinton method against Escherichia coli 1507E; assay type: functional
Escherichia coli [13] = assay: Compound was tested in vitro for its minimum inhibitory concentration by serial 2-fold agar dilution Muller Hinton method against Escherichia coli O 55; assay type: functional
Escherichia coli [14] = assay: Compound was tested in vitro for its minimum inhibitory concentration by serial 2-fold agar dilution Muller Hinton method against Escherichia coli TEM; assay type: functional
Enterobacter cloacae [15] = assay: Compound was tested in vitro for its minimum inhibitory concentration by serial 2-fold agar dilution Muller Hinton method against Enterobacter cloacae 1321; assay type: functional
Pseudomonas aeruginosa [16] = assay: Compound was tested in vitro for its minimum inhibitory concentration by serial 2-fold agar dilution Muller Hinton method against Pseudomonas aeruginosa 1771 M; assay type: functional
Salmonella typhimurium = assay: Compound was tested in vitro for its minimum inhibitory concentration by serial 2-fold agar dilution Muller Hinton method against Salmonella Typhimurium; assay type: functional, Salmonella enterica subsp. enterica serovar Typhimurium; details: Salmonella enterica
Escherichia coli [17] = assay: Compound was tested in vitro for its minimum inhibitory concentration by serial 2-fold agar dilution Muller Hinton method against Escherichia coli DC 2; assay type: functional

Row | Structure (SMILES) | MIC (Pseudomonas aeruginosa [1]) | MIC (Streptococcus pyogenes [2]) | MIC (Escherichia coli [3]) | MIC (Pseudomonas aeruginosa [4]) | MIC (Streptococcus pyogenes [5]) | MIC (Klebsiella aerogenes) | MIC (Klebsiella oxytoca) | MIC (Staphylococcus aureus [6]) | MIC (Streptococcus pyogenes [7]) | MIC (Enterobacter cloacae [8]) | MIC (Staphylococcus aureus [9]) | MIC (Staphylococcus aureus [10]) | MIC (Pseudomonas aeruginosa [11]) | MIC (Escherichia coli [12]) | MIC (Escherichia coli [13]) | MIC (Escherichia coli [14]) | MIC (Enterobacter cloacae [15]) | MIC (Pseudomonas aeruginosa [16]) | MIC (Salmonella typhimurium) | MIC (Escherichia coli [17])
1 | C=CCO/N=C(\C(=O)NC1C(=O)N2C(C(=O)[O-])=C(CN(C)c3sc(C(=O)OCC)c(C)[n+]3C)CSC12)c1csc(N)n1 (stereo not given) | 12.5 µg/mL (≈ 19.7 µM) | 0.013 µg/mL (≈ 0.0204 µM) | 0.098 µg/mL (≈ 0.154 µM) | 25 µg/mL (≈ 39.3 µM) | 50 µg/mL (≈ 78.6 µM) | 0.049 µg/mL (≈ 0.0771 µM) | 6.25 µg/mL (≈ 9.83 µM) | 0.781 µg/mL (≈ 1.23 µM) | 0.013 µg/mL (≈ 0.0204 µM) | 25 µg/mL (≈ 39.3 µM) | 1.56 µg/mL (≈ 2.46 µM) | 0.391 µg/mL (≈ 0.615 µM) | 3.12 µg/mL (≈ 4.92 µM) | 0.098 µg/mL (≈ 0.154 µM) | 0.025 µg/mL (≈ 0.0393 µM) | 0.098 µg/mL (≈ 0.154 µM) | 0.025 µg/mL (≈ 0.0393 µM) | 0.391 µg/mL (≈ 0.615 µM) | 0.049 µg/mL (≈ 0.0771 µM) | 0.025 µg/mL (≈ 0.0393 µM)
2 | CCO/N=C(\C(=O)NC1C(=O)N2C(C(=O)[O-])=C(CN(C)c3sc4c([n+]3C)CCCC4)CSC12)c1csc(N)n1 (stereo not given) | 25 µg/mL (≈ 42.2 µM) | 0.013 µg/mL (≈ 0.022 µM) | 0.098 µg/mL (≈ 0.166 µM) | 25 µg/mL (≈ 42.2 µM) | 25 µg/mL (≈ 42.2 µM) | 0.098 µg/mL (≈ 0.166 µM) | 3.12 µg/mL (≈ 5.28 µM) | 0.391 µg/mL (≈ 0.661 µM) | 0.007 µg/mL (≈ 0.0118 µM) | 6.25 µg/mL (≈ 10.6 µM) | 0.781 µg/mL (≈ 1.32 µM) | 0.195 µg/mL (≈ 0.33 µM) | 6.25 µg/mL (≈ 10.6 µM) | 0.195 µg/mL (≈ 0.33 µM) | 0.049 µg/mL (≈ 0.0828 µM) | 0.195 µg/mL (≈ 0.33 µM) | 0.049 µg/mL (≈ 0.0828 µM) | 0.391 µg/mL (≈ 0.661 µM) | 0.098 µg/mL (≈ 0.166 µM) | 0.025 µg/mL (≈ 0.0422 µM)
3 | CO/N=C(\C(=O)NC1C(=O)N2C(C(=O)[O-])=C(CN(C)c3scc(C)[n+]3C)CSC12)c1csc(N)n1 (stereo not given) | 25 µg/mL (≈ 46.5 µM) | 0.013 µg/mL (≈ 0.0242 µM) | 0.049 µg/mL (≈ 0.0911 µM) | 25 µg/mL (≈ 46.5 µM) | > 100 µg/mL | 0.049 µg/mL (≈ 0.0911 µM) | 6.25 µg/mL (≈ 11.6 µM) | 0.781 µg/mL (≈ 1.45 µM) | 0.004 µg/mL (≈ 0.00744 µM) | 25 µg/mL (≈ 46.5 µM) | 1.56 µg/mL (≈ 2.91 µM) | 0.781 µg/mL (≈ 1.45 µM) | 12.5 µg/mL (≈ 23.2 µM) | 0.049 µg/mL (≈ 0.0911 µM) | 0.025 µg/mL (≈ 0.0465 µM) | 0.049 µg/mL (≈ 0.0911 µM) | 0.013 µg/mL (≈ 0.0242 µM) | 1.56 µg/mL (≈ 2.91 µM) | 0.049 µg/mL (≈ 0.0911 µM) | 0.049 µg/mL (≈ 0.0911 µM)
4 | CO/N=C(\C(=O)NC1C(=O)N2C(C(=O)[O-])=C(CN(C)c3sc(C)c(C)[n+]3C)CSC12)c1csc(N)n1 (stereo not given) | 50 µg/mL (≈ 90.6 µM) | 0.013 µg/mL (≈ 0.0236 µM) | 0.049 µg/mL (≈ 0.0888 µM) | 50 µg/mL (≈ 90.6 µM) | > 100 µg/mL | 0.098 µg/mL (≈ 0.178 µM) | 6.25 µg/mL (≈ 11.3 µM) | 1.56 µg/mL (≈ 2.83 µM) | 0.007 µg/mL (≈ 0.0127 µM) | 12.5 µg/mL (≈ 22.7 µM) | 1.56 µg/mL (≈ 2.83 µM) | 0.781 µg/mL (≈ 1.42 µM) | 25 µg/mL (≈ 45.3 µM) | 0.049 µg/mL (≈ 0.0888 µM) | 0.025 µg/mL (≈ 0.0453 µM) | 0.049 µg/mL (≈ 0.0888 µM) | 0.013 µg/mL (≈ 0.0236 µM) | 1.56 µg/mL (≈ 2.83 µM) | 0.098 µg/mL (≈ 0.178 µM) | 0.098 µg/mL (≈ 0.178 µM)
5 | C=CCO/N=C(\C(=O)NC1C(=O)N2C(C(=O)[O-])=C(CN(C)c3scc(C)[n+]3C)CSC12)c1csc(N)n1 (stereo not given) | 12.5 µg/mL (≈ 22.2 µM) | 0.013 µg/mL (≈ 0.0231 µM) | 0.195 µg/mL (≈ 0.346 µM) | 25 µg/mL (≈ 44.4 µM) | 25 µg/mL (≈ 44.4 µM) | 0.098 µg/mL (≈ 0.174 µM) | 12.5 µg/mL (≈ 22.2 µM) | 0.391 µg/mL (≈ 0.694 µM) | 0.007 µg/mL (≈ 0.0124 µM) | 25 µg/mL (≈ 44.4 µM) | 0.781 µg/mL (≈ 1.39 µM) | 0.195 µg/mL (≈ 0.346 µM) | 6.25 µg/mL (≈ 11.1 µM) | 0.195 µg/mL (≈ 0.346 µM) | 0.049 µg/mL (≈ 0.0869 µM) | 0.195 µg/mL (≈ 0.346 µM) | 0.098 µg/mL (≈ 0.174 µM) | 0.195 µg/mL (≈ 0.346 µM) | 0.098 µg/mL (≈ 0.174 µM) | 0.025 µg/mL (≈ 0.0444 µM)
6 | CO/N=C(\C(=O)N[C@@H]1C(=O)N2C(C(=O)O)=C(COC(C)=O)CS[C@H]12)c1csc(N)n1 [CEFOTAXIME] | 12.5 µg/mL (≈ 27.4 µM) | 0.007 µg/mL (≈ 0.0154 µM) | 0.025 µg/mL (≈ 0.0549 µM) | 25 µg/mL (≈ 54.9 µM) | 100 µg/mL (≈ 220 µM) | 0.025 µg/mL (≈ 0.0549 µM) | 1.56 µg/mL (≈ 3.43 µM) | 1.56 µg/mL (≈ 3.43 µM) | 0.002 µg/mL (≈ 0.00439 µM) | 100 µg/mL (≈ 220 µM) | 3.12 µg/mL (≈ 6.86 µM) | 0.781 µg/mL (≈ 1.71 µM) | 3.12 µg/mL (≈ 6.86 µM) | 0.025 µg/mL (≈ 0.0549 µM) | 0.007 µg/mL (≈ 0.0154 µM) | 0.025 µg/mL (≈ 0.0549 µM) | 0.007 µg/mL (≈ 0.0154 µM) | 0.098 µg/mL (≈ 0.215 µM) | 0.025 µg/mL (≈ 0.0549 µM) | 0.013 µg/mL (≈ 0.0285 µM)
7 | CO/N=C(\C(=O)N[C@@H]1C(=O)N2C(C(=O)[O-])=C(C[n+]3cccc4c3CCC4)CS[C@H]12)c1csc(N)n1 [CEFPIROME] | 1.56 µg/mL (≈ 3.04 µM) | 0.007 µg/mL (≈ 0.0136 µM) | 0.013 µg/mL (≈ 0.0253 µM) | 3.12 µg/mL (≈ 6.07 µM) | 1.56 µg/mL (≈ 3.04 µM) | 0.025 µg/mL (≈ 0.0486 µM) | 1.56 µg/mL (≈ 3.04 µM) | 0.391 µg/mL (≈ 0.76 µM) | 0.007 µg/mL (≈ 0.0136 µM) | 3.12 µg/mL (≈ 6.07 µM) | 0.781 µg/mL (≈ 1.52 µM) | 0.098 µg/mL (≈ 0.19 µM) | 0.781 µg/mL (≈ 1.52 µM) | 0.025 µg/mL (≈ 0.0486 µM) | 0.025 µg/mL (≈ 0.0486 µM) | 0.049 µg/mL (≈ 0.0952 µM) | 0.013 µg/mL (≈ 0.0253 µM) | 0.391 µg/mL (≈ 0.76 µM) | 0.025 µg/mL (≈ 0.0486 µM) | 0.049 µg/mL (≈ 0.0952 µM)
